Source: patent US7425638B2, “Cis-imidazolines” (Hoffmann-La Roche Inc., priority 2003, dated 2008)

Biological target: recombinant GST-tagged MDM2 / p53 peptide (Homo sapiens, UniProt Q00987)
Experiment: HTRF assay of inhibition of the p53-MDM2 interaction
Assay type: binding
Details: GST-MDM2 and biotinylated p53 peptide, 37° C. 1 h
Experimental: The ability of the compounds to inhibit the interaction between p53 and MDM2 proteins was measured by an HTRF (homogeneous time-resolved fluorescence) assay in which recombinant GST-tagged MDM2 binds to a peptide that resembles the MDM2-interacting region of p53 (Lane et al.). Binding of GST-MDM2 protein and p53-peptide (biotinylated on its N-terminal end) is registered by the FRET (fluorescence resonance energy transfer) between Europium (Eu)-labeled anti-GST antibody and streptavidin-conjugated Allophycocyanin (APC).
Test is performed in black flat-bottom 384-well plates (Costar) in a total volume of […] containing:90 nM biotinylate peptide, 160 ng/ml GST-MDM2, 20 nM streptavidin-APC (PerkinElmerWallac), 2 nM Eu-labeled anti-GST-antibody (PerkinElmerWallac), 0.2% bovine serum albumin (BSA), 1 mM dithiothreitol (DTT) and 20 mM […] (TBS) buffer as follows: Add 10 uL of GST-MDM2 (640 ng/ml working solution) in reaction buffer to each well. Add 10 uL diluted compounds (1:5 dilution in reaction buffer) to each well, mix by shaking. Add 20 uL biotinylated p53 peptide (180 nM working solution) in reaction buffer to each well and mix on shaker. Incubate at 37° C. for 1 h. Add 20 uL streptavidin-APC and Eu-anti-GST antibody mixture (6 nM Eu-anti-GST and 60 nM streptavidin-APC working solution) in TBS buffer with 0.2% BSA, shake at room temperature for 30 minutes and read using a TRF-capable plate reader at 665 and 615 nm (Victor 5, Perkin ElmerWallac). If not specified, the reagents were purchased from Sigma Chemical Co.

Sequence of recombinant GST-tagged MDM2 / p53 peptide (Q00987 whole entry): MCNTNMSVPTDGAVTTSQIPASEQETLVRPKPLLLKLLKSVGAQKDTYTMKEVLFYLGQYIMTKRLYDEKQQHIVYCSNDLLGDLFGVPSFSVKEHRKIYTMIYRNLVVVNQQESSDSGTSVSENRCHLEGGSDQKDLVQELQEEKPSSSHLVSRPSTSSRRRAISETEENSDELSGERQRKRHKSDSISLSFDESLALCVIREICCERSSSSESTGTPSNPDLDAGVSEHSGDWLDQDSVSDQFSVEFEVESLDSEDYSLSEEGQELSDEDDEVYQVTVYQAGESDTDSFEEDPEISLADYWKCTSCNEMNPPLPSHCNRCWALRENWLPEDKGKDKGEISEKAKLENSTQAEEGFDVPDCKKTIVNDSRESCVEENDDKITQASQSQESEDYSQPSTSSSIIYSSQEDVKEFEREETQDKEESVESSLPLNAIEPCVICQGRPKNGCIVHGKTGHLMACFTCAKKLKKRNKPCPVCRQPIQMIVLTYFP

IC50 [nM] | Compound
4260 | CCOc1cc(C(F)(F)F)ccc1C1=NC(c2ccc(Cl)cc2)C(c2ccc(Cl)cc2)N1C(=O)N(C)c1ccccn1 (centres unmarked) [Example 36, 4,5-Bis-(4-chloro-phenyl)-2-(2-ethoxy-4-trifluoromethyl-phenyl)-4,5-dihydro-imidazole-1-carboxylic acid methyl-pyridin-2-yl-amide]
21 | CCOc1cc(C(F)(F)F)ccc1C1=NC(c2ccc(Cl)cc2)C(c2ccc(Cl)cc2)N1C(=O)N1CCC(NCC(=O)N(C)CCC#N)CC1 (centres unmarked) [Example 176, 2-{1-[4,5-Bis-(4-chloro-phenyl)-2-(2-ethoxy-4-trifluoromethyl-phenyl)-4,5-dihydro-imidazole-1-carbonyl]-piperidin-4-ylamino}-N-(2-cyano-ethyl)-N-methyl-acetamide]

The next lines start with the compound.

Compound | IC50 [nM]
CCOc1cc(C(F)(F)F)ccc1C1=NC(c2ccc(Cl)cc2)C(c2ccc(Cl)cc2)N1C(=O)N1CCN(S(=O)(=O)C(C)C)CC1 (centres unmarked) [Example 6, [4,5-Bis-(4-chloro-phenyl)-2-(2-ethoxy-4-trifluoromethyl-phenyl)-4,5-dihydro-imidazol-1-yl]-[4-(propane-2-sulfonyl)-piperazin-1-yl]-methanone] | 100
CCOc1cc(C(F)(F)F)ccc1C1=NC(c2ccc(Cl)cc2)C(c2ccc(Cl)cc2)N1C(=O)N1CCC(C(=O)OC)CC1 (centres unmarked) [Example 16, 1-[4,5-Bis-(4-chloro-phenyl)-2-(2-ethoxy-4-trifluoromethyl-phenyl)-4,5-dihydro-imidazole-1-carbonyl]-piperidine-4-carboxylic acid methyl ester] | 1740
CCOc1cc(C(F)(F)F)ccc1C1=NC(c2ccc(Cl)cc2)C(c2ccc(Cl)cc2)N1C(=O)N1CCC(n2c(=O)[nH]c3ccccc32)CC1 (centres unmarked) [Example 26, 1-{1-[4,5-Bis-(4-chloro-phenyl)-2-(2-ethoxy-4-trifluoromethyl-phenyl)-4,5-dihydro-imidazole-1-carbonyl]-piperidin-4-yl}-1,3-dihydro-benzoimidazol-2-one] | 800
